Measured values published in PubChem BioAssay AID2060503 (Molecular Pharmacology Branch, DTP, NCI, 2025).

Test system: 817829-284-R-J1-PDC complex spheroids, viability
Assay: Anticancer human tumor 817829-284-R-J1-PDC patient-derived colon adenocarcinoma cell line growth inhibition [GQUAD]
Settings: for IC50: curve of first compound; for viability, T/C: stronger effect = lower value
Text: DNA G-quadruplex Stabilizer Agents in Combinations in Complex Spheroids
A high-throughput screen of multi-cell type tumor spheroids was designed to identify active combinations of DNA G-quadruplex stabilizer agents and targeted small molecules. Complex spheroids include a stromal component modeled by human endothelial cells (HUVEC) and fibroblasts modeled by human mesenchymal stem cells (MSCs). The concentration ranges selected for each drug and investigational agent were based upon clinically achievable concentrations if the clinical Cmax of the agent was known.
Compounds. The drugs and investigational agents: pidnarulex (CX-5461; NSC782164), APTO-253 (NSC789042), BRACO-19 (NSC847499), peposertib (NSC802822), ceralasertib (NSC780249), elimusertib (NSC800525), camonsertib (NSC841442), AZD-1390 (NSC803789), olaparib (NSC753686), talazoparib (NSC767125), ART-558 (NSC835418), sotorasib (NSC818433), MRTX-1133 (NSC836407), SN-38 (NSC673596), topotecan (NSC609699), etoposide (NSC141540), doxorubicin (NSC123127), gemcitabine (NSC613327), 5-fluorouracil (NSC19893), paclitaxel (NSC125973), vemurafenib (NSC761431), panobinostat (NSC761190), R-306465 (JNJ-16241199; NSC773264), adavosertib (NSC754352), TP-3654 (NSC805149), carboplatin (NSC241240), KSQ-4279 (NSC840948), and staurosporine (NSC755774) were obtained from the National Cancer Institute (NCI) Developmental Therapeutics Program Chemical Repository (34). The FDA-approved anticancer drug set is available from the NCI Developmental Therapeutics Program. […] The stock solutions were prepared in dimethyl sulfoxide (DMSO, Sigma-Aldrich, St. Louis, MO, cat. D2650) at 800-fold the tested concentration and stored at -70 degrees C prior to their use. All drugs and investigational agents were tested over a range starting from a high concentration at or near the clinical Cmax and decreasing in half-log increments. If the clinical Cmax for an agent had not been determined, the highest concentration tested was 10 microM.
2.3 Cell Culture. All cells were maintained in an incubator at 37 degrees C and 5% CO2 with 95% humidity. The PDC lines were cultured according to standard operating procedures established by the NCI PDMR. All PDCs were thawed and cultured in Matrigel-coated flasks prepared with a working solution of 1X Ham's F-12 nutrient mix, without supplementation (Invitrogen, cat. 11765054), 100 U/mL penicillin-streptomycin (Invitrogen, cat. 15140122), and 2.5% Matrigel (Corning Inc., cat. 354248) for the first three passages. The 857933-349-R-J2-PDC line was cultured in 6C/Colon 1B media, which includes advanced DMEM/F-12 (Thermo Fisher Scientific, cat. 12634028), 10 mM HEPES (Thermo Fisher Scientific, cat. 15630080), 1X GlutaMAX supplement (Thermo Fisher Scientific, cat. 35050061), 0.1 mg/mL primocin (InvivoGen, cat. ant-pm-2), 10% defined fetal bovine serum, heat inactivated (HyClone Laboratories Inc., cat. SH30070.03HI), 50% L-WRN conditioned media (ATCC, cat. CRL-3276), 1.25 mM N-Acetyl-L-cysteine (Sigma-Aldrich, cat. A9165), 10 mM nicotinamide (Sigma-Aldrich, cat. N0636), 1X B-27 supplement (Thermo Fisher Scientific, cat. 17504044), 1X N-2 supplement (Thermo Fisher Scientific, cat. 17502048), 10 microM Y-27632 dihydrochloride (Tocris Bioscience, cat. 1254), and 50 ng/mL human EGF recombinant protein (Thermo Fisher Scientific, cat. PHG0311). The 485176-168-R4-J1-PDC line was cultured in Panc media, which includes all 6C/Colon 1B media components plus 100 ng/mL human FGF-10 (Thermo Fisher Scientific, cat. 100-26), 500 nM SB-431542 (Selleckchem, cat. S1067), and gastrin (Tocris, cat. 3006).
[…]
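Also: spheroids exposed to agents for 7 days before readout.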
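For viability, T/C in this document: percent viability relative to DMSO vehicle control taken as 100%.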

IC50 (second compound 0.0316 µM): < 31.6 nM | IC50 (second compound 0.1 µM): < 31.6 nM | IC50 (second compound 0.316 µM): < 31.6 nM | IC50 (second compound 1 µM): < 31.6 nM | IC50 (second compound 3.16 µM): < 31.6 nM | IC50 (second compound 10 µM): < 31.6 nM
SMILES: Nc1ccn(C2OC(CO)C(O)C2(F)F)c(=O)n1 (configuration not stated) + Cc1cnc(CNC(=O)c2c(=O)c3ccc(N4CCCN(C)CC4)nc3n3c2sc2ccccc23)cn1
viability, T/C (second compound 0.0316 µM, first compound 0.0316 µM): 17.2% | viability, T/C (second compound 0.0316 µM, first compound 0.1 µM): 7.44% | viability, T/C (second compound 0.0316 µM, first compound 0.316 µM): 7.25% | viability, T/C (second compound 0.0316 µM, first compound 1 µM): 5.51% | viability, T/C (second compound 0.0316 µM, first compound 3.16 µM): 5.09% | viability, T/C (second compound 0.0316 µM, first compound 10 µM): 3.11% | viability, T/C (second compound 0.1 µM, first compound 0.0316 µM): 18% | viability, T/C (second compound 0.1 µM, first compound 0.1 µM): 10.7% | viability, T/C (second compound 0.1 µM, first compound 0.316 µM): 5.49% | viability, T/C (second compound 0.1 µM, first compound 1 µM): 7.04% | viability, T/C (second compound 0.1 µM, first compound 3.16 µM): 6.51% | viability, T/C (second compound 0.1 µM, first compound 10 µM): 4.03% | viability, T/C (second compound 0.316 µM, first compound 0.0316 µM): 15.3% | viability, T/C (second compound 0.316 µM, first compound 0.1 µM): 11.4% | viability, T/C (second compound 0.316 µM, first compound 0.316 µM): 8.25% | viability, T/C (second compound 0.316 µM, first compound 1 µM): 7.77% | viability, T/C (second compound 0.316 µM, first compound 3.16 µM): 4.4% | viability, T/C (second compound 0.316 µM, first compound 10 µM): 3.63% | viability, T/C (second compound 1 µM, first compound 0.0316 µM): 15.6% | viability, T/C (second compound 1 µM, first compound 0.1 µM): 10.3% | viability, T/C (second compound 1 µM, first compound 0.316 µM): 7.69% | viability, T/C (second compound 1 µM, first compound 1 µM): 5.93% | viability, T/C (second compound 1 µM, first compound 3.16 µM): 4.41% | viability, T/C (second compound 1 µM, first compound 10 µM): 2.57% | viability, T/C (second compound 3.16 µM, first compound 0.0316 µM): 15% | viability, T/C (second compound 3.16 µM, first compound 0.1 µM): 8.99% | viability, T/C (second compound 3.16 µM, first compound 0.316 µM): 5.76% | viability, T/C (second compound 3.16 µM, first compound 1 µM): 5.67% | viability, T/C (second compound 3.16 µM, first compound 3.16 µM): 1% | viability, T/C (second compound 3.16 µM, first compound 10 µM): 0.14% | viability, T/C (second compound 10 µM, first compound 0.0316 µM): 0.09% | viability, T/C (second compound 10 µM, first compound 0.1 µM): 0.13% | viability, T/C (second compound 10 µM, first compound 0.316 µM): 0.12% | viability, T/C (second compound 10 µM, first compound 1 µM): 0.12% | viability, T/C (second compound 10 µM, first compound 3.16 µM): 0.14% | viability, T/C (second compound 10 µM, first compound 10 µM): 0.15%
